Data: patent publication US20240091214A1, “LONAFARNIB FOR USE IN THE TREATMENT OF VIRAL INFECTIONS” (TWINCORE ZENTRUM FÜR EXPERIMENTELLE UND KLINISCHE …, priority 2021, published 2024)
Where two headings read alike, the source gives them in different places.

Key:
[1] = tested on: HRSV luciferase reporter virus; experiment: HRSV luciferase reporter virus infection assay (first and second round of infection); type: cell-based, human respiratory syncytial virus (HRSV); settings: for IC50: human respiratory syncytial virus, 24 h
Description: The dose-response relationship of lonafarnib to the HRSV reporter virus is shown on the right. Below are the IC50 and IC90 values of the first round of infection and the second round of infection, respectively, and the 50% cytotoxic concentration of lonafarnib (CC50).
The chemical structure of the farneslytransferase inhibitors lonafarnib and tipifarnib is shown above. The dose-response relationship of these agents against the HRSV luciferase reporter virus is shown below.
Efficiency of HRSV infection-inhibition by lonafarnib was investigated by a series of infection assays. In the first round of infection, the effect of lonafarnib on the virus' cell entry, which includes RNA transcription, translation and replication up to 24 hours after infection, was investigated. In the second round of infection, the cell culture supernatant was harvested and transferred to naive cells at 24 h after primary infection. In these cells, again 24 h later, the infection efficiency was determined using the luciferase reporter. In this way, the efficiency was analyzed over a longer period of time, including the spread of the virus and the re-infection of cells. The IC50 values were determined at 0.02 μM (round 1) and 0.004 μM (round 2). (FIG. 2)
In a further trial, the effect of lonafarnib compared to the farnesyltransferase inhibitor tipifarnib on HRSV-infected cell culture was then analyzed and compared.

[2] = cited from earlier work
[3] = tested on: Hepatitis Delta Virus (HDV); experiment: Production of infectious Hepatitis Delta Virus in transfected Huh7-hNTCP cells; type: cell-based; settings: increasing concentrations (FIG. 8)
Experimental: 16 h later medium was exchanged and the cells were then cultured in absence or presence of 1% DMSO or increasing concentrations of lonafarnib or tipifarnib; (A) 10 days post transfection, translation of the HDV viral genome in the cells was confirmed by immunofluorescence and percentage of positive cells was calculated; (B) production of infectious progeny HDV was assessed by incubating serial dilutions of their supernatants on naïve Huh7-hNTCP, followed by staining for the HD-Ag—dashed lines indicates the detection threshold of the assay.

[4] = animals, formulated in crystalline forms; cited from earlier work
[5] = tested on: HRSV-B virus; experiment: HRSV-B infection assay, number of infected cells; type: cell-based; settings: % compared to DMSO control (FIG. 9)
Description: However, […].

[6] = tested on: HRSV H01 ON1 isolate; experiment: Infection assay with HRSV H01 ON1 isolate, intracellular FACS staining against a virus own protein; type: cell-based, human respiratory syncytial virus (HRSV)
Experimental: Both graphs show data from analysing the viral infection efficiency by intracellular flow cytometry staining against a virus own protein. […] MFI: mean fluorescence intensity
Another infection assay was carried out with the HRSV H01 ON1 isolate. The analysis/quantification of the viral infection efficiency was carried out by intracellular FACS staining against a virus own protein. […] The amount of viral proteins in the infected cells was […] by the administration of lonafarnib.

[7] = tested on: HRSV virus population with resistance to a fusion inhibitor (mutations within the F protein); experiment: Infection assay with HRSV population resistant to an HRSV fusion inhibitor, intracellular FACS staining; type: cell-based, human respiratory syncytial virus (HRSV); settings: fusion inhibitor adapted virus compared with DMSO adapted virus (FIG. 6)
Experimental: The most significant reduction of infected cells is shown in the DMSO adapted virus population by administration of lonafarnib. Dark grey: DMSO adapted virus; light grey: fusion inhibitor adapted virus.
Further, the efficacy of lonafarnib on HRSV virus population that had previously developed resistance to an HRSV fusion inhibitor was investigated. The effectiveness of HRSV infection (number of infected cells) was determined by intracellular FACS staining. […] The HRSV virus population with resistance to a fusion inhibitor was also less susceptible to inhibition by lonafarnib.

[8] = tested on: clinical HRSV isolate HRSV H01 ON1; experiment: Plaque reduction test with clinical HRSV isolate; type: cell-based, human respiratory syncytial virus (HRSV); settings: clinical HRSV H01 ON1 isolate (FIG. 4)
Experimental: The respective concentrations of lonafarnib, tipifarnib and DMSO (control; final concentration 1%) administered to the cells are indicated on the respective well.
To confirm the antiviral effect of lonafarnib, an infection assay was performed with the clinical HRSV isolate HRSV H01 ON1. The infection efficiency was assessed in the plaque reduction test, i.e. independently of an indirect reporter gene measurement. […] (FIG. 4)

[9] = tested on: HRSV; experiment: HRSV infection of differentiated BCi-NS1.1 air-liquid-interface cultures, viral load by qRT-PCR; type: cell-based, human respiratory syncytial virus (HRSV); settings: differentiated human airway epithelial cells (BCi-NS1.1), HBSS rinsing fluid and harvested cells, different doses and time points (FIG. 7)
Description: Shown are viral loads measured by qRT-PCR after HRSV infection in differentiated BCi-NS1.1 cells and treatment with lonafanib at different doses. right: viral load in HBSS rinsing fluid at different time points after infection. left: viral load of harvested cells, also at different time points after infection.
Then, the antiviral effect of lonafarnib against HRSV was shown in differentiated human airway epithelial cells. Therefore, BCi NS1.1 cells were differentiated and used in so-called “air-liquid-interface” cultures to form a pseudo-stratified lung epithelium. The cells were then infected with HRSV and treated with lonafarnib at different concentrations. The compounds were added to the medium from the basolateral pole of the cell (“liquid interface”, homologous to the blood stream) as well as administered apically (homologous to local treatment via inhalation). At different time points post infection, the cell surface (“air interface”, apical side of the cell culture, homologous to the lumen of the lung) was rinsed with HBSS to remove released viruses from the cell surface. The viral load in the HBSS rinsing fluid was determined by qRT-PCR. Also, at each time point cells were lysed and the virus load in the cell extract was determined by qRT-PCR. (FIG. 7)

NC(=O)N1CCC(CC(=O)N2CCC([C@H]3c4ncc(Br)cc4CCc4cc(Cl)cc(Br)c43)CC2)CC1 [lonafarnib]
suppression of HRSV infection ([1]; HRSV-infected cell culture, dose-response, comparison of lonafarnib and tipifarnib (FIG. 3)): highly effective | IC50 ([1]; read-out: IC50, first round of infection): 20 nM | IC50 ([1]; read-out: IC50, second round of infection): 4 nM | stability in solution ([2]; acidic or basic conditions): will hydrolyze | water solubility [2]: poorly water soluble | stability in solution ([2]; neutral pH): stable at neutral pH | stability in the solid state ([2]; solid state, thermal): thermally stable | inhibition of Hepatitis Delta infections [3]: equally inhibit Hepatitis Delta infections | bioavailability [4]: low and variable | inhibition of HRSV-B infection (number of infected cells) [5]: selectively and efficiently inhibits the number of infected cells | number of infected cells ([6]; intracellular FACS staining (FIG. 5 left)): reduced the number of infected cells in a dose-dependent manner | amount of viral proteins in the infected cells (MFI) ([6]; intracellular FACS staining (FIG. 5 right)): not reduced | activity against fusion inhibitor-resistant HRSV population (number of infected cells) [7]: reduced activity | plaque formation (plaque size and number) [8]: reduced plaque size and number in a dose-dependent manner | inhibition of HRSV infection (viral load by qRT-PCR) [9]: inhibits HRSV infection
